Laboratory results from PubChem BioAssay (NCI).
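Exposure lasted 48 hours, with cells grown in 96-well plates and compounds tested at five concentrations. TGI: total growth inhibition.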

Tests used:
Experiment in all cases: inhibition of tumour cell growth, NCI panel, 48 h
[1] = tested on: A498 renal
[2] = tested on: SK-OV-3 ovarian
[3] = tested on: MALME-3M melanoma
[4] = tested on: OVCAR-8 ovarian
[5] = tested on: HOP-92 NSCLC
[6] = tested on: OVCAR-4 ovarian
[7] = tested on: M14 melanoma
[8] = tested on: KM12 colon
[9] = tested on: DU-145 prostate
[10] = tested on: NCI-H460 lung
[11] = tested on: OVCAR-5 ovarian
[12] = tested on: MCF7 breast
[13] = tested on: CAKI-1 renal
[14] = tested on: SNB-19 CNS
[15] = tested on: UACC-257 melanoma
[16] = tested on: UO-31 renal
[17] = tested on: SK-MEL-5 melanoma
[18] = tested on: EKVX NSCLC
[19] = tested on: 786-0 renal
[20] = tested on: HCT-15 colon
[21] = tested on: UACC-62 melanoma
[22] = tested on: HT29 colon
[23] = tested on: HCT-116 colon
[24] = tested on: HCC-2998 colon
[25] = tested on: SK-MEL-28 melanoma
[26] = tested on: HS 578T breast
[27] = tested on: SF-295 CNS
[28] = tested on: RPMI-8226 leukemia
[29] = tested on: TK-10 renal
[30] = tested on: BT-549 breast
[31] = tested on: SK-MEL-2 melanoma
[32] = tested on: SF-268 CNS
[33] = tested on: MDA-N
[34] = tested on: MOLT-4 leukemia
[35] = tested on: K-562 leukemia
[36] = tested on: PC-3 prostate
[37] = tested on: RXF 393 renal
[38] = tested on: SW-620 colon
[39] = tested on: ACHN renal
[40] = tested on: MDA-MB-435
[41] = tested on: NCI-H23 lung
[42] = tested on: IGROV1 ovarian
[43] = tested on: A549 NSCLC
[44] = tested on: HOP-62 NSCLC
[45] = tested on: U251 CNS
[46] = tested on: COLO 205 colon
[47] = tested on: NCI/ADR-RES ovarian
[48] = tested on: MDA-MB-231 breast
[49] = tested on: SNB-75 CNS
[50] = tested on: NCI-H522 lung
[51] = tested on: OVCAR-3 ovarian
[52] = tested on: SN12C renal
[53] = tested on: CCRF-CEM leukemia
[54] = tested on: NCI-H226 lung
[55] = tested on: T-47D breast
[56] = tested on: SF-539 CNS
[57] = tested on: LOX IMVI melanoma
[58] = tested on: HL-60(TB) leukemia

Structure (SMILES): COC(=O)C1CCC(=S)N1C(C)=O (configuration not stated)
- TGI [1]: > 100 µM
- TGI [2]: > 100 µM
- TGI [3]: > 100 µM
- TGI [4]: > 100 µM
- TGI [5]: > 100 µM
- TGI [6]: > 100 µM
- TGI [7]: > 100 µM
- TGI [8]: > 100 µM
- TGI [9]: > 100 µM
- TGI [10]: > 100 µM
- TGI [11]: > 100 µM
- TGI [12]: > 100 µM
- TGI [13]: > 100 µM
- TGI [14]: > 100 µM
- TGI [15]: > 100 µM
- TGI [16]: > 100 µM
- TGI [17]: > 100 µM
- TGI [18]: > 100 µM
- TGI [19]: > 100 µM
- TGI [20]: > 100 µM
- TGI [21]: > 100 µM
- TGI [22]: > 100 µM
- TGI [23]: > 100 µM
- TGI [24]: > 100 µM
- TGI [25]: > 100 µM
- TGI [26]: > 100 µM
- TGI [27]: > 100 µM
- TGI [28]: > 100 µM
- TGI [29]: > 100 µM
- TGI [30]: > 100 µM
- TGI [31]: > 100 µM
- TGI [32]: > 100 µM
- TGI [33]: > 100 µM
- TGI [34]: > 100 µM
- TGI [35]: > 100 µM
- TGI [36]: > 100 µM
- TGI [37]: > 100 µM
- TGI [38]: > 100 µM
- TGI [39]: > 100 µM
- TGI [40]: > 100 µM
- TGI [41]: > 100 µM
- TGI [42]: > 100 µM
- TGI [43]: > 100 µM
- TGI [44]: > 100 µM
- TGI [45]: > 100 µM
- TGI [46]: > 100 µM
- TGI [47]: > 100 µM
- TGI [48]: > 100 µM
- TGI [49]: > 100 µM
- TGI [50]: > 100 µM
- TGI [51]: > 100 µM

Structure (SMILES): CC(=O)Nc1ccc(C(=O)NN2C(=O)CSC2c2ccccc2)cc1 (configuration not stated)
- TGI [1]: > 100 µM
- TGI [2]: > 100 µM
- TGI [4]: > 100 µM
- TGI [5]: > 100 µM
- TGI [6]: > 100 µM
- TGI [7]: > 100 µM
- TGI [8]: > 100 µM
- TGI [9]: > 100 µM
- TGI [10]: > 100 µM
- TGI [11]: > 100 µM
- TGI [12]: > 100 µM
- TGI [14]: > 100 µM
- TGI [15]: > 100 µM
- TGI [16]: > 100 µM
- TGI [17]: > 100 µM
- TGI [52]: > 100 µM
- TGI [18]: > 100 µM
- TGI [19]: > 100 µM
- TGI [53]: > 100 µM
- TGI [20]: > 100 µM
- TGI [21]: > 100 µM
- TGI [22]: > 100 µM
- TGI [23]: > 100 µM
- TGI [24]: > 100 µM
- TGI [25]: > 100 µM
- TGI [26]: > 100 µM
- TGI [27]: > 100 µM
- TGI [28]: > 100 µM
- TGI [29]: > 100 µM
- TGI [30]: 83 µM
- TGI [54]: > 100 µM
- TGI [31]: > 100 µM
- TGI [55]: > 100 µM
- TGI [32]: > 100 µM
- TGI [33]: > 100 µM
- TGI [34]: > 100 µM
- TGI [56]: > 100 µM
- TGI [35]: > 100 µM
- TGI [37]: > 100 µM
- TGI [38]: > 100 µM
- TGI [39]: > 100 µM
- TGI [40]: > 100 µM
- TGI [41]: > 100 µM
- TGI [42]: > 100 µM
- TGI [43]: > 100 µM
- TGI [44]: > 100 µM
- TGI [45]: > 100 µM
- TGI [46]: > 100 µM
- TGI [47]: > 100 µM
- TGI [48]: > 100 µM
- TGI [49]: > 100 µM
- TGI [51]: > 100 µM

Structure (SMILES): O=C(Nc1nc2ccc([N+](=O)[O-])cc2s1)c1cc([N+](=O)[O-])ccc1Cl
- TGI [1]: 7.42 µM
- TGI [2]: 13.6 µM
- TGI [3]: 10.4 µM
- TGI [57]: 5.3 µM
- TGI [4]: 9.57 µM
- TGI [5]: 2.97 µM
- TGI [6]: > 100 µM
- TGI [8]: 50.5 µM
- TGI [9]: 31 µM
- TGI [11]: 17 µM
- TGI [13]: 24.3 µM
- TGI [15]: 19.2 µM
- TGI [17]: 2.83 µM
- TGI [52]: 4.57 µM
- TGI [18]: 8.55 µM
- TGI [19]: 11.7 µM
- TGI [20]: 8.3 µM
- TGI [22]: 6.03 µM
- TGI [23]: 5.33 µM
- TGI [27]: 14.8 µM
- TGI [28]: 9.8 µM
- TGI [29]: 32 µM
- TGI [30]: 6.83 µM
- TGI [54]: 7.24 µM
- TGI [55]: > 100 µM
- TGI [32]: 11.7 µM
- TGI [33]: 5.04 µM
- TGI [34]: > 100 µM
- TGI [56]: 6.71 µM
- TGI [37]: 15.5 µM
- TGI [38]: 5.59 µM
- TGI [39]: 13.7 µM
- TGI [40]: 16.4 µM
- TGI [41]: 6.92 µM
- TGI [44]: 10.3 µM
- TGI [45]: 12.1 µM
- TGI [46]: 3.65 µM
- TGI [47]: 8.23 µM
- TGI [48]: 21.3 µM
- TGI [49]: 9.61 µM
- TGI [50]: 4.39 µM
- TGI [51]: 9.64 µM

Structure (SMILES): CC(C)c1nc(Cl)c(Cl)c(Cl)n1
- TGI [1]: 52 µM
- TGI [2]: 37.9 µM
- TGI [3]: 19 µM
- TGI [57]: 1.71 µM
- TGI [4]: 8.07 µM
- TGI [5]: 14.2 µM
- TGI [6]: 39.1 µM
- TGI [7]: 19 µM
- TGI [8]: 23.3 µM
- TGI [9]: 20.3 µM
- TGI [10]: 48.4 µM
- TGI [11]: 17.7 µM
- TGI [12]: 14.2 µM
- TGI [13]: 11.8 µM
- TGI [14]: 36.2 µM
- TGI [15]: 17.8 µM
- TGI [16]: 2.66 µM
- TGI [17]: 30.9 µM
- TGI [52]: 16.9 µM
- TGI [18]: 29.1 µM
- TGI [19]: 16.1 µM
- TGI [53]: 9.33 µM
- TGI [20]: 17.7 µM
- TGI [21]: 23.1 µM
- TGI [22]: 17.9 µM
- TGI [23]: 14.2 µM
- TGI [24]: 15.7 µM
- TGI [25]: 40.5 µM
- TGI [26]: 14 µM
- TGI [27]: 29 µM
- TGI [28]: 14.7 µM
- TGI [29]: 28.8 µM
- TGI [30]: 27.1 µM
- TGI [54]: 38.9 µM
- TGI [55]: 42.7 µM
- TGI [32]: 9.29 µM
- TGI [33]: 19 µM
- TGI [34]: 11.4 µM
- TGI [56]: 25.2 µM
- TGI [35]: > 100 µM
- TGI [58]: 5.4 µM
- TGI [36]: 17.7 µM
- TGI [37]: 7.97 µM
- TGI [38]: 15.6 µM
- TGI [39]: 2.51 µM
- TGI [40]: 17.2 µM
- TGI [41]: 22.3 µM
- TGI [42]: 19.5 µM
- TGI [43]: > 41.3 µM
- TGI [44]: 25.9 µM
- TGI [45]: 12.8 µM
- TGI [46]: 11.9 µM
- TGI [47]: 55.8 µM
- TGI [48]: 23.2 µM
- TGI [49]: 25.8 µM
- TGI [50]: 8.64 µM
- TGI [51]: 8.2 µM
